Experimental data: patent publication US11850263B2, “Nanoparticles conjugated with vasoactive intestinal peptide antagonists” (Emory University, priority 2017, dated 2023)
“Also recorded” adds a separate entry of the source. No end group written: not given here.

Tests used:
[1] = test system: senescent T cells from a patient with lymphoma; experiment: 10 day in vitro culture of senescent lymphoma patient T cells with anti-CD3/CD28 beads, flow cytometric analysis; assay type: cell-based, human; conditions: for fraction of senescent T cells that lacked both CD27 and CD28: control 55.2%; for numbers of effector memory T cells (Tem): 10-day cultures; for in vitro expansion of senescent T cells: as single agent or in combination
Procedure: Monocytes were depleted from the T cell sample, as monocytes are known to inhibit T cell expansion in cultures containing anti-CD3/CD28 beads. The effect of a range of idelalisib concentrations were compared alone and in combination with 3 uM VIP peptide antagonist (VIPhyb) or 1 ug/ml mast cell chymase, an enzyme that degrades endogenous VIP on T cell activation, differentiation and proliferation. Numbers of viable T cells were measured during a 10 day in vitro cultures as well as the T cell differentiation and activation profiles, focusing on the relative numbers of T cells with a senescent phenotype in which co-stimulatory receptors CD27 and CD28 are both absent (CD27−CD28−), to an activated phenotype, in which either CD27, CD28, or both co-stimulatory receptors are present (CD27+CD28+).
Aliquots of frozen patient apheresis products or PBMC from ficolled whole blood were rapidly thawed and rested overnight in complete RPMI 1640 supplemented with 10% fetal bovine serum, 100 U/mL penicillin, 100 μg/mL streptomycin, and 50 μM 2-mercaptoethanol (complete media). The following day, red blood cells were removed from apheresis products by ficoll gradient. The leukocytes were then enriched for T cells using an EasySep human T cell enrichment kit according to manufacturer's instructions. Cells were plated in 200 μL of complete media in each well of a 96 well flat-bottom plate. Compounds were added at the indicated concentrations, and the DMSO concentration was normalized to 0.1% for all wells. Anti-CD3/CD28 beads were added at a 1:1 bead:cell ratio. On day 7 post-stimulation, cells from each treatment were transferred to new media. Fresh compounds and beads were then added, and the cells were cultured for an additional 3 days. On day 10 post-initial stimulation, the beads were removed, and the cells were stained for flow cytometric analysis.
Cells were washed twice in PBS. The cells were also stained using a fixable viability dye. Surface markers were then stained by adding fluorochrome-conjugated antibodies to CD3, CD4, CD8, CD27, CD28, CD45RA, CD45RO, PD-1, and CCR7. To assess proliferation, half the cells were evaluated for expression of Ki67. Ki67 staining was performed using a FoxP3 intracellular staining kit. Just prior to running samples, Accucheck™ counting beads were added to each tube. Samples were acquired on a BD FACS Aria, and analysis was performed using FlowJo™ software. Viable cells were used in the analysis. The absolute numbers of cells was calculated for each population according to instructions provided by the manufacturer of the Accucheck™ counting beads.

[2] = test system: DLBCL patient T cells; experiment: DLBCL patient T cell expansion for 14 days with CD3/CD28 beads and IL-2; assay type: cell-based, human
[3] = test system: Bcl-2; experiment: Bcl-2 blot of protein lysates from patient T cell expansion cultures; assay type: cell-based, human; conditions: lysates on days 7 and 14; actin loading control
Procedure: Protein lysates from patient T cell expansion cultures were prepared on days 7 and 14. Samples were run on an SDS-PAGE gel prior to transfer to a nitrocellulose membrane. The membrane was then probed for the pro-survival Bcl-2 protein, stripped, and then re-probed for actin as a loading control.

[4] = test system: E.G7-OVA cells; experiment: E.G7-OVA lymphoma model, adoptive transfer of T cells expanded with the compounds; assay type: in vivo, Mice; conditions: OVA-expressing lymphoma model; T cells expanded 3 days with CD3/CD28 beads and IL-2, injected intravenously on day 7 of tumor growth
Procedure: Mice were injected subcutaneously with 5×10^5 E.G7-OVA cells that were allowed to grow for 7 days until a palpable tumor formed. During this period, OT-I, OT-II, and B6 T cells were expanded with CD3/CD28 beads in the presence of IL-2 and the indicated compounds for 3 days. On day 7 of tumor growth, mice were injected intravenously with a combination of expanded OT-I, OT-II, and B6 T cells (2×10^6 OT-I, 1×10^6 OT-II, and 2×10^6 B6 cells) or 2×10^6 B6 T cells as a control. Mice were then monitored for tumor growth that was calculated as (L×W^2)/2. FIG. 5B is a tumor growth curve showing the rate of growth among groups over time. Expansion of mouse T cells in the presence of Idelalisib, VIPhyb, or a combination of both enhances their therapeutic efficacy in an OVA-expressing lymphoma model.

[5] = test system: luciferase-expressing splenic T cells from B6 Luciferase mice; experiment: Bioluminescent MLR, B6 Luciferase splenic T cells with irradiated FVB splenic T cells (VIP, VIPhyb, VIPhyb-NP); assay type: cell-based, mouse; conditions: for effect on inhibitory effects of VIP on T cell proliferation in vitro: added on 3 consecutive days
Excerpt: Splenocytes were extracted from WT and VIP-KO mice treated with B16-F0 and B16-F10 melanoma, and analyzed with flow cytometry for Granzyme B (GrZ B) and CD8 expression. VIPhyb was conjugated to a biocompatible, non-toxic 30 nm NP through emulsion polymerization and tested for purity and stability. A mixed lymphocyte reaction (MLR) using luciferase-expressing splenic T cells from B6 Luciferase mice were co-cultured with irradiated splenic T cells from FVB mice. VIP, VIPhyb, and VIPhyb-NP at concentrations of 0 ug/mL to 975 ug/mL were added to the MLR on 3 consecutive days and their effect on T cell proliferation assessed with bioluminescent imaging.

[6] = test system: luciferase positive splenic T cells (B6 Luc); experiment: One-way allogeneic MLR, B6 Luc T cells with irradiated B6 Albino stimulator cells, IVIS average radiance; assay type: cell-based, mouse
Procedure: Bioluminescent image of a 96-well MLR plate.
A one-way allogeneic mixed lymphocyte reaction (MLR) between luciferase positive splenic T cells (B6 Luc) and 20 Gy irradiated stimulator cells from B6 Albino mice were co-cultured at 37° C. in a 96-well black plate. VIPhyb-NP in concentrations 0-2.5 uM was added to each well, followed by VIP in concentrations of 0-10 uM, 30 minutes later. This treatment was administered daily for 3 days, and an IVIS spectrum was used to quantify photon intensity, which correlates to cell number, on day 3. An increase in average radiance indicates an increase in T cell proliferation.

[7] = test system: luciferase B6 splenic T cells; experiment: One-way mixed lymphocyte reaction (MLR), luciferase B6 splenic T cells with irradiated FVB splenocytes; assay type: cell-based, mouse; conditions: for T-cell proliferation in MLR: 3 days, daily addition of VIP and/or VIPhyb, 0-10 mmol/L [sic]
Procedure: Proliferation of luciferase B6 splenic T cells cultured for 3 days in MLR with irradiated FVB splenocytes, with daily addition of VIP and/or VIPhyb to achieve the concentrations shown (0-10 mmol/L).
To explore the role of VIP signaling in allo-immune responses, one-way mixed lymphocyte reactions (MLR) were performed containing VIP and/or the antagonistic VIPhyb peptide. Addition of VIP decreased Luciferase T-cell proliferation in a dose-dependent manner, while adding VIPhyb increased T-cell proliferation.

[8] = cited from earlier work
[9] = test system: T-cells from the anergic lymphoma patient; experiment: Culture of sorted lymphoma patient T-cells with anti-CD3/anti-CD28 beads (Ki67, PD-1 by flow cytometry); assay type: cell-based, human
Excerpt: Using high-speed cell sorting subsets of T-cells were isolated defined by their levels of CD27 and CD28 expression from the patient with relapsed lymphoma and a healthy control. CD3 positive T-cells with each of the four phenotypes defined by CD27 and CD28 expression were sorted and cultured in vitro in the presence of anti-CD^3/anti-CD28 beads. Total T-cells from healthy donors had 100% expression of the Ki67 proliferation marker following four days of culture. However, the corresponding total T-cell population from the patient with anergic T-cells following treatment for lymphoma had only 90% of T-cells expressing the Ki67 marker.
Following the daily addition of 3 uM VIPhyb to these cultures, the proportion of Ki67 positive T-cells from the anergic lymphoma patient was increased to 100%. […] In contrast, the T-cell subsets lacking expression of either CD27 or CD28 or both markers had impaired proliferated response when incubated with the anti-CD3/CD28 beads.
Addition of the antagonist VIPhyb augmented T-cell proliferation in the subsets lacking either CD27 or CD28.

[10] = test system: effector/memory CD8+ T cells and mature NK cells; conditions: mouse leukemia models; cited from earlier work
[11] = test system: PD-1 and PD-L1; conditions: activated T cells and dendritic cells, respectively; cited from earlier work
[12] = inclusion during T cell activation

## CC[C@H](Nc1ncnc2[nH]cnc12)c1nc2cccc(F)c2c(=O)n1-c1ccccc1 [idelalisib, (S)-2-(1-(9H-purin-6-ylamino)propyl)-5-fluoro-3-phenylquinazolin-4(3H)-one]
[1]; 10 nM idelalisib
  fraction of senescent T cells that lacked both CD27 and CD28: 16.1%
[1]
  numbers of effector memory T cells (Tem): increased
  in vitro expansion of senescent T cells: significantly expanded
[1]; idelalisib 1 uM or 100 nM, compared to control cultures
  proportion of T cells co-expressing CD27 and CD28: significantly increased
[2]
  frequency of CD27+CD28+ cells: increases
  frequency of CD27−CD28− cells: decreasing
[2]; [12]
  number of viable T cells obtained: increases
  proportion of naïve and central memory cells: increases
[3]
  expression of Bcl-2 in lymphoma patient T cells: increased
[4]
  therapeutic efficacy of mouse T cells expanded in presence of the compounds: enhances

## VIPhyb-NP: VIPhyb with C-terminal linker (SEQ ID NO: 13) conjugated to a 30 nm poloxamer-stabilized polypropylene sulfide nanoparticle (KPRRPYTDNYTRLRKQMAVKKYLNSILNGGGGSC; also: conjugated to polypropylene sulfide nanoparticle)
[5]; 0 ug/mL to 975 ug/mL
  dose dependence of effect on T cell proliferation: dose-dependent
  effect on inhibitory effects of VIP on T cell proliferation in vitro: counteracted the inhibitory effects of VIP
[6]; VIPhyb-NP 0-2.5 uM daily for 3 days, read on day 3
  average radiance (T cell proliferation): significant dose-dependent increase
[6]; VIPhyb-NP 0-2.5 uM, then VIP 0-10 uM 30 minutes later
  effect on immunosuppressive effects of VIP: able to counteract the immunosuppressive effects of VIP

## HSDAVFTDNYTRLRKQMAVKKYLNSILN [VIP]
[7]
  T-cell proliferation in MLR: decreased
[8]
  half-life in vivo: less than two

## KPRRPYTDNYTRLRKQMAVKKYLNSILN [VIPhyb, peptide antagonist of VIP]
[9]; 3 uM VIPhyb, flow cytometry, compared with control cultures without VIP antagonist
  levels of PD-1 expression: decreased
[9]; addition of VIPhyb, anti-CD3/CD28 beads
  T-cell proliferation in the subsets lacking either CD27 or CD28: augmented
[9]; daily addition of 3 uM VIPhyb, total T-cells of anergic lymphoma patient, anti-CD3/anti-CD28 beads, four days of culture, 90% without VIPhyb
  proportion of Ki67 positive T-cells: 100%
[7]
  T-cell proliferation in MLR: increased; also recorded: augmented
[7]; VIP plus VIPhyb in MLR
  effect on VIP suppression of T-cell proliferation: reversed the suppressive effect of VIP; also recorded: mitigated the inhibitory effect
[1]; 3 uM VIPhyb
  fraction of senescent T cells that lacked both CD27 and CD28: 35.7%
[1]
  numbers of effector memory T cells (Tem): increased
  in vitro expansion of senescent T cells: significantly expanded
[2]
  frequency of CD27+CD28+ cells: increases
  frequency of CD27−CD28− cells: decreasing
[3]
  expression of Bcl-2 in lymphoma patient T cells: increased
[4]
  therapeutic efficacy of mouse T cells expanded in presence of the compounds: enhances
[5]; T cell proliferation in MLR
  concentration of peak efficacy: 300 µg/mL
[5]; 0 ug/mL to 975 ug/mL
  effect on inhibitory effects of VIP on T cell proliferation in vitro: counteracted the inhibitory effects of VIP
[10]
  number of effector/memory CD8+ T cells and mature NK cells: increases
[11]
  expression of PD-1 and PD-L1: down regulates

B1: mast cell chymase: human mast cell chymase (CMA1), an enzyme that degrades endogenous VIP (protein, UniProt P23946 22-247, looked up)
Chymase: IIGGTECKPHSRPYMAYLEIVTSNGPSKFCGGFLIRRNFVLTAAHCAGRSITVTLGAHNITEEEDTWQKLEVIKQFRHPKYNTSTLHHDIMLLKLKEKASLTLAVGTLPFPSQFNFVPPGRMCRVAGWGRTGVLKPGSDTLQEVKLRLMDPQACSHFRDFDHNLQLCVGNPRKTKSAFKGDSGGPLLCAGVAQGIVSYGRSDAKPPAVFTRISHYRPWINQILQAN
[1]; 1 μg per ml mast cell chymase
  fraction of senescent T cells that lacked both CD27 and CD28: 37.4%
[1]
  in vitro expansion of senescent T cells: significantly expanded

B2: IL 12: IL 12 added to T-cell cultures (protein, UniProt P29459 23-219; P29460 23-328, looked up)
Interleukin-12 subunit alpha: RNLPVATPDPGMFPCLHHSQNLLRAVSNMLQKARQTLEFYPCTSEEIDHEDITKDKTSTVEACLPLELTKNESCLNSRETSFITNGSCLASRKTSFMMALCLSSIYEDLKMYQVEFKTMNAKLLMDPKRQIFLDQNMLAVIDELMQALNFNSETVPQKSSLEEPDFYKTKIKLCILLHAFRIRAVTIDRVMSYLNAS
Interleukin-12 subunit beta: IWELKKDVYVVELDWYPDAPGEMVVLTCDTPEEDGITWTLDQSSEVLGSGKTLTIQVKEFGDAGQYTCHKGGEVLSHSLLLLHKKEDGIWSTDILKDQKEPKNKTFLRCEAKNYSGRFTCWWLTTISTDLTFSVKSSRGSSDPQGVTCGAATLSAERVRGDNKEYEYSVECQEDSACPAAEESLPIEVMVDAVHKLKYENYTSSFFIRDIIKPDPPKNLQLKPLKNSRQVEVSWEYPDTWSTPHSYFSLTFCVQVQGKSKREKKDRVFTDKTSATVICRKNASISVRAQDRYYSSSWSEWASVPCS
[9]; addition of IL 12 to the cultures
  proliferation fraction of T-cells, CD28 negative and CD27 negative subsets: significant impact in increasing the proliferation fraction of T-cells that were CD28 negative but not those that were CD27 negative
